In paper PMC10458471, “Electrophysiological Assessment of Newly Synthesized 2,3-Benzodiazepine Derivatives for Inhibiting the AMPA Receptor Channel” (Molecules, 2023):
Like-named read-outs stand apart in the source and are kept apart here.

Tests used:
Format in all cases: cell-based
GluA2 = target: T1, GluA2 (Rattus norvegicus, UniProt P19491); assay: Whole-cell patch-clamp recording of homomeric GluA2 AMPAR expressed in HEK293T cells; settings: for Amplitude with compound: 10 mM glutamate + 16 µM compound, mean±SEM; for Amplitude with compound / A/AI (current amplitude ratio without/with compound) / t deact (weighted deactivation time constant) / t des (weighted desensitization time constant) / Amplitude, applying glutamate alone after compound: n=8; for A/AI (current amplitude ratio without/with compound): 10 mM glutamate, 16 µM compound; for t deact (weighted deactivation time constant): 1 ms 10 mM glutamate + 16 µM compound; for t des (weighted desensitization time constant): 500 ms 10 mM glutamate + 16 µM compound; for Amplitude, applying glutamate alone after compound: washout/recovery
T1 construct: expressed in transfected cells; host or cells: HEK293T
Procedure: (§1) For the DNA preparation, the QIAGEN Plasmid Mini Kit was used to prepare up to 20 µg of high-copy plasmid DNA [30]. All AMPAR subunits utilized in this study included the flip isoform received from S. F. Heinemann (Salk Institute, La Jolla, CA, USA) and sub-cloned in pRK for expression in Human Embryonic Kidney Cells 293 (HEK293T). The human embryonic kidney (HEK293T) cells were obtained from Sigma, Taufkirchen, Germany, and we only used the HEK293T cell line due to their ease of growth and transfection and wide utilization in cell culture. For the transfection, we used the constructs GluA1, GluA2, GluA2/3, and GluA1/2, along with the GFP-expressing construct, as described in our previous work. The transfection reagents utilized were jetPRIME (Polyplus: New York, NY, USA) or Lipofectamine 2000 (Invitrogen; San Diego, CA, USA). The highly fluorescent cells were identified and selected for recording. The selected cells were seeded in Dulbecco Modified Eagle Medium (DMEM) (Sigma, Roedermark, Germany) containing 10% FBS, 0.1 mg/mL streptomycin, and 1 mM sodium pyruvate (Biological Industries; Beit-Haemek, Israel). The cells were incubated at 37 °C with 5% CO2 added to the medium and subcultured twice a week until they reached passage #20. Following a day and a half, the cells were replated on coverslips covered with Laminin (1 mg/mL; Sigma, Roedermark, Germany) for electrophysiological recordings. Our previous work has detailed the DNA preparation, cDNA transient transfection, and cell culture of HEK293T [30, 31, 32, 33].
(§2) After that, a patch was placed in front of a rapid perfusion system comprised of a theta tube flow pipe mounted on a piezoelectric translator that was used to wash the cell continuously from one barrel while the other supplied the compound of interest to the cell. Recordings were conducted 36–48 h after transfection at 22 °C, with a membrane potential of −60 mV. Currents were amplified using an integrated patch amplifier (IPA, Sutter Instruments, Novato, CA, USA), filtered at 2 kHz, and digitized at 10 kHz using SutterPatch Software v. 1.1.1 [46]. […] The extracellular medium contained (in mM): 150 NaCl, 2.8 KCl, 0.5 MgCl2, 2 CaCl2, and 10 HEPES, pH 7.4 adjusted with NaOH. The holding potential was typically −60 mV. The sample size was determined to be eight viable cells to calculate the mean inhibition of the derivative of interest. The solution exchange time (10–90% to peak) was estimated at […] using open-tip control at the end of a recording. Inhibition was calculated by comparing the current observed when the cell was supplied with glutamate alone and when the same cell was supplied with both glutamate and the 2,3-BDZ compounds. The initial tube containing only glutamate was reintroduced to the cell to ensure cellular safety and authenticate the antagonist’s findings. This step ensured that the glutamate-induced current observed before the administration of the antagonist was nearly indistinguishable from the current observed after administration.
(§3) The experiment served two purposes: first, determining the whole-cell current amplitude ratio in the absence and presence of the compounds (A/AI) to derive a constant inhibitory value independent of the rate measurement. Second, as an independent control method, a fast exchange solution flow methodology was employed using piezoelectric actuators, providing the fastest exchange solution with open-tip current rise times in the 100–300 μs range to assess the amplitude of the whole-cell current. Detailed data analysis of this process is provided in the supporting information (Tables S1–S4).
(§4) The data acquired were analyzed using Igor Pro7 (Wave Metrics, Inc., Portland, OR, USA). Receptor desensitization (τw des) and deactivation rates were estimated by fitting the current decay starting from 95% of the peak to the baseline current using a double exponential formulation. […]

AMPA receptor subunits = assay: Whole-cell patch-clamp recording, statements over all tested AMPAR subunits (GluA1, GluA1/2, GluA2, GluA2/3) in HEK293T cells; settings: 16 µM compound; for Effect on deactivation rate of the AMPAR subunits examined: 1 ms glutamate
Procedure: as §1, §2, §3, §4

GluA2/3 = target: T2, GluA2/3 (Rattus norvegicus, UniProt P19491+P19492); assay: Whole-cell patch-clamp recording of heteromeric GluA2/3 AMPAR expressed in HEK293T cells; settings: for Amplitude with compound: 10 mM glutamate + 16 µM compound, mean±SEM; for Amplitude with compound / A/AI (current amplitude ratio without/with compound) / t deact (weighted deactivation time constant) / t des (weighted desensitization time constant) / Amplitude, applying glutamate alone after compound: n=8; for A/AI (current amplitude ratio without/with compound): 10 mM glutamate, 16 µM compound; for t deact (weighted deactivation time constant): 1 ms 10 mM glutamate + 16 µM compound; for t des (weighted desensitization time constant): 500 ms 10 mM glutamate + 16 µM compound; for Amplitude, applying glutamate alone after compound: washout/recovery
T2 construct: expressed in transfected cells; host or cells: HEK293T
Procedure: as §1, §2, §3, §4

GluA1 = target: T3, GluA1 (Rattus norvegicus, UniProt P19490); assay: Whole-cell patch-clamp recording of homomeric GluA1 AMPAR expressed in HEK293T cells; settings: for Amplitude with compound: 10 mM glutamate + 16 µM compound, mean±SEM; for Amplitude with compound / A/AI (current amplitude ratio without/with compound) / t deact (weighted deactivation time constant) / t des (weighted desensitization time constant) / Amplitude, applying glutamate alone after compound: n=8; for A/AI (current amplitude ratio without/with compound): 10 mM glutamate, 16 µM compound; for t deact (weighted deactivation time constant): 1 ms 10 mM glutamate + 16 µM compound; for t des (weighted desensitization time constant): 500 ms 10 mM glutamate + 16 µM compound; for Amplitude, applying glutamate alone after compound: washout/recovery
T3 construct: expressed in transfected cells; host or cells: HEK293T
Procedure: as §1, §2, §3, §4

GluA1/2 = target: T4, GluA1/2 (Rattus norvegicus, UniProt P19490+P19491); assay: Whole-cell patch-clamp recording of heteromeric GluA1/2 AMPAR expressed in HEK293T cells; settings: for Amplitude with compound: 10 mM glutamate + 16 µM compound, mean±SEM; for Amplitude with compound / A/AI (current amplitude ratio without/with compound) / t deact (weighted deactivation time constant) / t des (weighted desensitization time constant) / Amplitude, applying glutamate alone after compound: n=8; for A/AI (current amplitude ratio without/with compound): 10 mM glutamate, 16 µM compound; for t deact (weighted deactivation time constant): 1 ms 10 mM glutamate + 16 µM compound; for t des (weighted desensitization time constant): 500 ms 10 mM glutamate + 16 µM compound; for Amplitude, applying glutamate alone after compound: washout/recovery
T4 construct: expressed in transfected cells; host or cells: HEK293T
Procedure: as §1, §2, §3, §4

[1] = log of IC50, read-out: Log IC50 (converted)
[2] = normalized peak current, -60 mV, pH 7.4, 22 °C, read-out: IC50

T2 sequence (P19491 22-883 isoform P19491-2 limits assumed): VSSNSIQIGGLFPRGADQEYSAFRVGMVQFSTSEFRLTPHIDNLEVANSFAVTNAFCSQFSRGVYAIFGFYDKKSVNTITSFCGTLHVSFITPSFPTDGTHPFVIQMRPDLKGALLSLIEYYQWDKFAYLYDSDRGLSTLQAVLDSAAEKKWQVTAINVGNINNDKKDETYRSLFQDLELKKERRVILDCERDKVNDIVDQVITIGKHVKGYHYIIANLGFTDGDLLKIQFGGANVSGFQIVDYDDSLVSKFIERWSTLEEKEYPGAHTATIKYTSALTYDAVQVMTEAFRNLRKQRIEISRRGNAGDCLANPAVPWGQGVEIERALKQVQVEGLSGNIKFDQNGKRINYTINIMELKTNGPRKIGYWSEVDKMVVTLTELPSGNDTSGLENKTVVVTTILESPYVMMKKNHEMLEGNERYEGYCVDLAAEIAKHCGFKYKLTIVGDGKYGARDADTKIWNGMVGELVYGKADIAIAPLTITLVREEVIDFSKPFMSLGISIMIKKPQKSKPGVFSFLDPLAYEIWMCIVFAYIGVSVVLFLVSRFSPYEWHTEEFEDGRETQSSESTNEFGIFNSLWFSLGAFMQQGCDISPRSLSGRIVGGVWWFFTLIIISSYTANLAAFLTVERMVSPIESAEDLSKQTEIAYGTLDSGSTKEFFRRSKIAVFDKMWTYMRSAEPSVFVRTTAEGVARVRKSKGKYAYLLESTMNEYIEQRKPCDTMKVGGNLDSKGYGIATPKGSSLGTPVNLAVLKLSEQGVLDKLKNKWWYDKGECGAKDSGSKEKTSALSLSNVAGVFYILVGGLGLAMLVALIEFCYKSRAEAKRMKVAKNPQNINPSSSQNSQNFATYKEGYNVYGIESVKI
T2 sequence (P19492 23-888 isoform P19492-2 limits assumed): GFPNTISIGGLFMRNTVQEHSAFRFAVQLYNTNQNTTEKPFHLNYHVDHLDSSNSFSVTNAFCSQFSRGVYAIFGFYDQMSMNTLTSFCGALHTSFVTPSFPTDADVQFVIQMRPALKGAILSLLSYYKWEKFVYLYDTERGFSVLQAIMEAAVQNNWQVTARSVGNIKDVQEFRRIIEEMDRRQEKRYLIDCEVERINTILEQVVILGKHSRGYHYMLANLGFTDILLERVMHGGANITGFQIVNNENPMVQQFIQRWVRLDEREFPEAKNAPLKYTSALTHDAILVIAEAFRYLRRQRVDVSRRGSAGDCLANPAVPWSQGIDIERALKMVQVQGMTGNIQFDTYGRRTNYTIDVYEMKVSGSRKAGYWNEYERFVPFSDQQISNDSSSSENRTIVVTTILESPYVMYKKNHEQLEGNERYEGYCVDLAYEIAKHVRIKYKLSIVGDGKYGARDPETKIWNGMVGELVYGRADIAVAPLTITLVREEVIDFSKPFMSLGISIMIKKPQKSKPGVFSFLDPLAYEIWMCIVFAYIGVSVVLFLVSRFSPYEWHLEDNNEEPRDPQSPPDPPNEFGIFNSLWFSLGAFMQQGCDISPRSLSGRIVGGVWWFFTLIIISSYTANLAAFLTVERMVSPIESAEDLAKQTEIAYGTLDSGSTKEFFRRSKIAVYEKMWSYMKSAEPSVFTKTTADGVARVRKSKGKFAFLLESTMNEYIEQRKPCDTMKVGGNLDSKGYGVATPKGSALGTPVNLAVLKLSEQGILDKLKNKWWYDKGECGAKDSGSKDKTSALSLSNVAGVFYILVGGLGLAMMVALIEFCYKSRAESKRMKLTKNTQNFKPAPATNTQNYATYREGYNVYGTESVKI
T1 sequence (P19491 22-883 isoform P19491-2 limits assumed): as the sequence (P19491 22-883 isoform P19491-2 limits assumed) above
T4 sequence (P19490 19-907 isoform P19490-2 limits assumed): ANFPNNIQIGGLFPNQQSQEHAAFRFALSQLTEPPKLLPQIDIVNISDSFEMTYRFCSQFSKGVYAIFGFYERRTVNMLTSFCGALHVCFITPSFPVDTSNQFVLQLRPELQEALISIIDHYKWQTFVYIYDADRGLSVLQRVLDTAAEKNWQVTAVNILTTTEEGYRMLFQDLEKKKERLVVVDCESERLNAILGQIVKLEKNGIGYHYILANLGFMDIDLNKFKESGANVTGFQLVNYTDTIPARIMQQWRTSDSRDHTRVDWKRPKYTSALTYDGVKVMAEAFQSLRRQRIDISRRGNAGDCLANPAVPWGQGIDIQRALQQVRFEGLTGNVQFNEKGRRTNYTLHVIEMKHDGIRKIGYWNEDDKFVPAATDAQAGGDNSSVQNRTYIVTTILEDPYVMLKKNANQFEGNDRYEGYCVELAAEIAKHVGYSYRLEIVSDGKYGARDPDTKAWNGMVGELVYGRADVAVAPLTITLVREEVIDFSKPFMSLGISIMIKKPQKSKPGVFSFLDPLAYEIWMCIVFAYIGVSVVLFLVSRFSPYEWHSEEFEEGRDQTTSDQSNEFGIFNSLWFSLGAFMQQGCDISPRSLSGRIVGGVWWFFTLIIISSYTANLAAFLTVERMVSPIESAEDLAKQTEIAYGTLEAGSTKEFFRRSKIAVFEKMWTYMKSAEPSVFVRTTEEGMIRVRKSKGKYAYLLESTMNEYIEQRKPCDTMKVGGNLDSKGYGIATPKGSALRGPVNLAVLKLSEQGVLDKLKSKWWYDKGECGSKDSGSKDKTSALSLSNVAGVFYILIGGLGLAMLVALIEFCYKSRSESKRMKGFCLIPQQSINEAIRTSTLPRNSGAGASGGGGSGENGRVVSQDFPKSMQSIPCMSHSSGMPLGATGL
T4 sequence (P19491 22-883 isoform P19491-2 limits assumed): as the sequence (P19491 22-883 isoform P19491-2 limits assumed) above
T3 sequence (P19490 19-907 isoform P19490-2 limits assumed): as the sequence (P19490 19-907 isoform P19490-2 limits assumed) above

Row | SMILES | Amplitude with compound (GluA2; -60 mV, pH 7.4, 22 °C) | A/AI (current amplitude ratio without/with compound) (GluA2) | t deact (weighted deactivation time constant) (GluA2) | t des (weighted desensitization time constant) (GluA2) | IC50 (GluA2; [1]) | IC50 (GluA2; [2]) | Amplitude, applying glutamate alone after compound (GluA2) | Reduction in AMPAR subunit currents (AMPA receptor subunits) | Effect on deactivation rate of the AMPAR subunits examined (AMPA receptor subunits) | Amplitude with compound (GluA2/3; -60 mV, pH 7.4, 22 °C) | A/AI (current amplitude ratio without/with compound) (GluA2/3) | t deact (weighted deactivation time constant) (GluA2/3) | t des (weighted desensitization time constant) (GluA2/3) | IC50 (GluA2/3; [1]) | IC50 (GluA2/3; [2]) | Amplitude, applying glutamate alone after compound (GluA2/3) | Amplitude with compound (GluA1; -60 mV, pH 7.4, 22 °C) | A/AI (current amplitude ratio without/with compound) (GluA1) | t deact (weighted deactivation time constant) (GluA1) | t des (weighted desensitization time constant) (GluA1) | further results
1 | COc1cc(N)ccc1C1=NNC(=O)Cc2cc3c(cc21)OCO3 [2,3-BDZ-2, 1-(2-Methoxy-4-aminophenyl)-7,8-(methylenedioxy)-3,5-dihydro-4H-2,3-benzodiazepin-4-one] | 127±12.0 pA | 10.42±0.8 | 5.1 ± 0.4 ms | 1.6 ± 0.05 ms | 3.39 µM | 3.36 µM | 1310±42 pA | approximately 10 fold | nearly doubles | 52±7.0 pA | 10.28±0.6 | 4.8 ± 0.5 ms | 1.7 ± 0.08 ms | 3.47 µM | 3.45 µM | 532±26 pA | 93±10.0 pA | 9.82±0.7 | 3.6 ± 0.3 ms | 1.8 ± 0.1 ms | Reduction in the desensitization rate of the investigated subunits (AMPA receptor subunits; 500 ms glutamate): 1–2 fold; IC50 (GluA1; [1]): 3.47 µM; IC50 (GluA1; [2]): 3.51 µM; Amplitude, applying glutamate alone after compound (GluA1): 914±40 pA; Amplitude with compound (GluA1/2; -60 mV, pH 7.4, 22 °C): 53±3.0 pA; A/AI (current amplitude ratio without/with compound) (GluA1/2): 9.91±0.6; t deact (weighted deactivation time constant) (GluA1/2): 3.9 ± 0.4 ms; t des (weighted desensitization time constant) (GluA1/2): 3.8 ± 0.3 ms; IC50 (GluA1/2; [1]): 3.39 µM; IC50 (GluA1/2; [2]): 3.43 µM; Amplitude, applying glutamate alone after compound (GluA1/2): 523±33 pA
2 | COc1cc([N+](=O)[O-])ccc1C1=NNC(=O)Cc2cc3c(cc21)OCO3 [2,3-BDZ-4, 1-(2-Methoxy-4-nitrophenyl)-7,8-(methylenedioxy)-3,5-dihydro-4H-2,3-benzodiazepin-4-one] | 364±17 pA | 3.68±0.1 | 2.7 ± 0.1 ms | 2.5 ± 0.1 ms | 6.76 µM | 6.75 µM | 1340±52 pA | 3 fold | no change | 146±14 pA | 3.56±0.3 | 2.8 ± 0.2 ms | 2.6 ± 0.2 ms | 6.76 µM | 6.69 µM | 516±23 pA | 277±14 pA | 3.41±0.2 | 2.3 ± 0.1 ms | 2.2 ± 0.1 ms | Effect on desensitization rate (AMPA receptor subunits): no change; IC50 (GluA1; [1]): 6.76 µM; IC50 (GluA1; [2]): 6.8 µM; Amplitude, applying glutamate alone after compound (GluA1): 942±44 pA; Amplitude with compound (GluA1/2; -60 mV, pH 7.4, 22 °C): 170±9 pA; A/AI (current amplitude ratio without/with compound) (GluA1/2): 3.44±0.2; t deact (weighted deactivation time constant) (GluA1/2): 2.7 ± 0.2 ms; t des (weighted desensitization time constant) (GluA1/2): 5.0 ± 0.3 ms; IC50 (GluA1/2; [1]): 6.76 µM; IC50 (GluA1/2; [2]): 6.69 µM; Amplitude, applying glutamate alone after compound (GluA1/2): 583±40 pA
